Assay results taken from US20250332173A1, “COMPOUNDS AND METHODS FOR MODULATING NUCLEIC ACID SPLICING” (REMIX THERAPEUTICS INC., priority 2021, published 2025).
Where two headings read alike, the source gives them in different places.

Tests used:
Type in all cases: cell-based, human
HTT mRNA = assay: RT-qPCR splicing assay, HTT canonical junction (CJ) and alternative junction (AJ) mRNA; details: Homo sapiens; for AC50: increase in HTT alternative junction (AJ) mRNA, read-out: HTT AJ AC50
Method in brief: (§1)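 A673 or K562 cells were treated for 24 h at 37 °C with an 11-point 3-fold compound dilution series (top final concentration 10 uM, DMSO ≤0.25%). After lysis, one-step TaqMan RT-qPCR quantified junction transcripts, normalized to PPIA for A673 or to GAPDH/GUSB for K562.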

MYB mRNA = assay: RT-qPCR splicing assay, MYB canonical junction (CJ) and alternative junction (AJ) mRNA; details: Homo sapiens; for AC50: increase in MYB alternative junction (AJ) mRNA, read-out: MYB AJ AC50
Method in brief: as §1

MYB = assay: HiBiT protein abundance assay, MYB HiBiT K562 cell line; details: 24 hours, top dose 10 μM
Method in brief: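 Endogenous targets in K562 knock-in lines carried a HiBiT tag and were treated for 24 h at 37 °C with 10-point 3-fold dilutions (top 10 μM final, DMSO ≤0.25%). Abundance was read as lytic Nano-Glo HiBiT luminescence. IC50 came from a four-parameter logistic fit of normalized response.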

[1] = decrease in HTT canonical junction (CJ) mRNA, RT-qPCR, read-out: HTT CJ IC50
[2] = canonical junction qPCR panel, Table 5, read-out: HTT (decrease in CJ mRNA levels, IC50)
[3] = canonical junction qPCR panel, Table 5, read-out: MYB (decrease in CJ mRNA levels, IC50)
[4] = decrease in MYB canonical junction (CJ) mRNA, RT-qPCR, read-out: MYB CJ IC50
[5] = HiBiT lytic detection, modified K562 cells, read-out: Effect on protein abundance, MYB (IC50)
[6] = Table 5 panel, canonical junction qPCR, compound concentration having 50% response in CJ decrease, read-out: HTT IC50 (decrease in CJ mRNA levels)
[7] = Table 5 panel, canonical junction qPCR, compound concentration having 50% response in CJ decrease, read-out: MYB IC50 (decrease in CJ mRNA levels)
[8] = HiBiT K562 cell line, read-out: Effect on protein abundance, MYB (IC50 category)

Structure (SMILES)	IC50 (HTT mRNA; [1]) [nM]	AC50 (HTT mRNA; RT-qPCR) [nM]	IC50 (HTT mRNA; [2]) [nM]	IC50 (MYB mRNA; [3]) [nM]	IC50 (MYB mRNA; [4]) [nM]	AC50 (MYB mRNA; RT-qPCR) [nM]	IC50 (MYB; [5]) [nM]	IC50 (HTT mRNA; [6]) [nM]	IC50 (MYB mRNA; [7]) [nM]	IC50 (MYB; [8]) [nM]
Cn1cc2ccc(-n3cnc4ccc(NC5CCNCC5)cc4c3=O)cc2n1 [Compound 2164]	> 10000	> 10000	> 10000	> 10000	> 10000	> 10000	> 10000			
Cn1cc2cc(-c3ncc4c(=O)n([C@@H]5CCNC5)ccc4n3)c(O)c(F)c2n1 [Compound 1466]	100 to 1000	100 to 1000	100 to 1000	100 to 1000	100 to 1000	100 to 1000	100 to 1000			
Cc1cc(-c2ccc3c(c2)CCN(C2CCNCC2)C3=O)cc2cn(C)nc12 [Compound 219, 6-(2,7-dimethylindazol-5-yl)-2-(piperidin-4-yl)-3,4-dihydroisoquinolin-1-one]	1000 to 10000	1000 to 10000			100 to 1000	100 to 1000		1000 to 10000	100 to 1000	100 to 1000
Cc1cn2nc(-n3cnc4ccc(N5CCN(C)CC5)cc4c3=O)cc(C)c2n1 [Compound 2202]	1000 to 10000	1000 to 10000	1000 to 10000	1000 to 10000	1000 to 10000	1000 to 10000	1000 to 10000			
Cc1c(O)c(-c2ncc3c(=O)n([C@H]4CCN[C@H](C)C4)ccc3n2)cc2cn(C)nc12 [Compound 1461, 2-(6-hydroxy-2,7-dimethyl-indazol-5-yl)-6-[(2R,4S)-2-methyl-4-piperidyl]pyrido[4,3-d]pyrimidin-5-one]	100 to 1000	100 to 1000	100 to 1000	< 100	< 100	< 100				< 100
Cc1cn2nc(-n3cnc4cc(N5CCNCC5)ccc4c3=O)cc(C)c2n1 [Compound 241]	1000 to 10000	1000 to 10000			1000 to 10000	1000 to 10000		1000 to 10000	1000 to 10000	1000 to 10000
CCN1CC[C@H](n2ncc3nc(-c4cc(C)c5nc(C)cn5n4)ccc3c2=O)CC12CC2 [Compound 1531]	100 to 1000	< 100	< 100	100 to 1000	100 to 1000	100 to 1000	100 to 1000			
Cc1cn2cc(-c3ncc4c(=O)n(C56CCC(N)(CC5)C6)ccc4n3)cc(F)c2n1 [Compound 1469, 6-(4-aminonorbornane-1-yl)-2-(8-fluoro-2-methyl-imidazo[1,2-a]pyridin-6-yl)pyrido[4,3-d]pyrimidin-5-one]	1000 to 10000	1000 to 10000	1000 to 10000	100 to 1000	100 to 1000	100 to 1000	100 to 1000			
Cc1cn2nc(-c3ccc4c(=O)n([C@H]5CCN(C)[C@@H](C)C5)ncc4n3)cc(C)c2n1 [Compound 1528, 2-(2,8-dimethylimidazo[1,2-b]pyridazin-6-yl)-6-(1,2-dimethyl-4-piperidyl)pyrido[2,3-d]pyridazin-5-one]	100 to 1000	100 to 1000	100 to 1000	100 to 1000	100 to 1000	100 to 1000	100 to 1000			
Cc1c(O)c(-c2ncc3c(=O)n([C@H]4CC[C@H](N(C)C)CC4)ccc3n2)cc2cn(C)nc12 [Compound 1459, 6-((1r,4r)-4-(dimethylamino)cyclohexyl)-2-(6-hydroxy-2,7-dimethyl-2H-indazol-5-yl)pyrido[4,3-d]pyrimidin-5(6H)-one]	100 to 1000	100 to 1000	100 to 1000	< 100	100 to 1000	< 100				< 100
Cc1cn2cc(-c3ccc4c(=O)n(C5CCNC(C)(C)C5)cnc4c3)cc(F)c2n1 (centres unmarked) [Compound 237]	100 to 1000	100 to 1000			100 to 1000	100 to 1000		100 to 1000	100 to 1000	100 to 1000
Cc1cn2nc(-c3ccc4c(c3)CCN(C3CCNCC3)C4=O)nc2c(C)n1 [Compound 222, 6-[6,8-dimethyl-[1,2,4]triazolo[1,5-a]pyrazin-2-yl]-2-(piperidin-4-yl)-3,4-dihydroisoquinolin-1-one]	1000 to 10000	1000 to 10000			1000 to 10000	1000 to 10000		1000 to 10000	1000 to 10000	1000 to 10000
Cc1nc2c(F)cc(-c3ccc4c(c3)CCN(C3CCNCC3)C4=O)cc2s1 [Compound 226]	> 10000	> 10000			1000 to 10000	1000 to 10000		> 10000	1000 to 10000	1000 to 10000
Cc1cn2nc(-c3ccc4c(=O)n(C5CCNC6(CCC6)C5)ncc4n3)cc(C)c2n1 (centres unmarked) [Compound 1553]	1000 to 10000	100 to 1000	100 to 1000	1000 to 10000	1000 to 10000	1000 to 10000	1000 to 10000			
Cc1cn2nc(-c3cc(F)c4c(=O)n(C5CCN(C)CC5)cnc4c3)cc(C)c2n1 [Compound 242]	< 100	< 100			< 100	< 100		< 100	< 100	< 100
Cc1cn2nc(-c3ccc4c(=O)n([C@@H]5CCNC6(CCC6)C5)ncc4n3)cc(C)c2n1 [Compound 1545, 6-[(8R)-5-azaspiro[3.5]nonan-8-yl]-2-(2,8-dimethylimidazo[1,2-b]pyridazin-6-yl)pyrido[2,3-d]pyridazin-5-one]	< 100	< 100	< 100	100 to 1000	100 to 1000	100 to 1000	100 to 1000			
Cc1cn2cc(-c3ccc4c(=O)n(C5CCN(C)CC5)cnc4c3F)cc(F)c2n1 [Compound 227]	1000 to 10000	1000 to 10000			1000 to 10000	1000 to 10000		1000 to 10000	1000 to 10000	1000 to 10000
Cc1cn2nc(-c3ccc4c(=O)n(C5CC(C)N[C@H](C)C5)ncc4n3)cc(C)c2n1 (stereo in doubt) [Compound 1536, 2-(2,8-dimethylimidazo[1,2-b]pyridazin-6-yl)-6-[(2S,6R)-2,6-dimethyl-4-piperidyl]pyrido[2,3-d]pyridazin-5-one]	100 to 1000	100 to 1000	100 to 1000	100 to 1000	100 to 1000	100 to 1000	100 to 1000			
Cc1cn2cc(-c3ccc4c(c3)CCN(C3CCNCC3)C4=O)ncc2n1 [Compound 224]	> 10000	> 10000			1000 to 10000	> 10000		> 10000	> 10000	> 10000
Cc1cn2nc(-c3ccc4c(=O)n([C@H]5CCN(C)C6(CC6)C5)ncc4n3)cc(C)c2n1 [Compound 1533]	100 to 1000	< 100	< 100	100 to 1000	100 to 1000	100 to 1000	100 to 1000			
Cn1cc2cc(-n3cnc4ccc(N5CCNCC5)cc4c3=O)cc(F)c2n1 [Compound 2196]	> 10000	> 10000	> 10000	> 10000	> 10000	> 10000	> 10000			
CN1CCC(Nc2ccc3ncn(-c4ccc5nn(C)cc5c4)c(=O)c3c2)CC1 [Compound 2171]	> 10000	> 10000	> 10000	> 10000	> 10000	> 10000	> 10000			
CNC12CCC(n3ccc4nc(-c5cc6cn(C)nc6c(C)c5O)ncc4c3=O)(CC1)C2 [Compound 1479]	1000 to 10000	1000 to 10000	1000 to 10000	< 100	100 to 1000	< 100	< 100			
Cc1cn2cc(-c3cc(F)c4c(=O)n(C5CCN(C)CC5)cnc4c3)cc(F)c2n1 [Compound 231, 5-fluoro-7-{8-fluoro-2-methylimidazo[1,2-a]pyridin-6-yl}-3-(1-methylpiperidin-4-yl)quinazolin-4-one]	100 to 1000	100 to 1000			100 to 1000	100 to 1000		100 to 1000	100 to 1000	100 to 1000
CN1CCC(N(C)c2ccc3ncn(-c4cc(F)c5nn(C)cc5c4)c(=O)c3c2)CC1 [Compound 2199]	> 10000	> 10000	> 10000	> 10000	> 10000	> 10000	> 10000			
Cc1cn2nc(-c3ccc4c(c3)CCN(C3CCNCC3)C4=O)cc2c(C)n1 [Compound 223, 6-[4,6-dimethylpyrazolo[1,5-a]pyrazin-2-yl]-2-(piperidin-4-yl)-3,4-dihydroisoquinolin-1-one]	1000 to 10000	1000 to 10000			100 to 1000	100 to 1000		1000 to 10000	100 to 1000	1000 to 10000
